# Experimental data as given in patent US20220218664A1, “DRUG AND METHOD FOR TREATING OR PREVENTING COMPLICATIONS FROM DIABETES, USING SAID DRUG” (TMS Co., Ltd., priority 2019, published 2022).
# Several values for one entry are separate records, joined by “and”; a condition that tells them apart may be missing. Identical values can stand only once.
# What was measured:
# [1] = system: streptozotocin-induced diabetic mice; test: Von Frey test: evaluating mechanical stimulus; type: in vivo, C57BL/6J male mice
# Description: (§1) 9-week-old C57BL/6J male mice were purchased and familiarized with an animal facility for 1 week. 200 mg/kg of streptozotocin (streptozotocin; STZ) was administered […] into the peritoneal cavity of 10-week-old mice to prepare streptozotocin-induced diabetic mice (hereinafter also referred to as “STZ administration week 0”). One week after the administration of streptozotocin, blood was collected from the tail vein of the mice, and the blood glucose level (BS) was measured using an automatic blood glucose measuring device (product name: Medisafe (trademark) Mini GR-102, made by Terumo (Co)). Mice having a blood glucose level of 400 mg/dL or more were determined to be diabetic mice.
# (§2) The SMTP-44D groups, the edaravone group, and the pregabalin group were administered SMTP-44D (0.3 mg/kg, 3 mg/kg, or 30 mg/kg doses, respectively), edaravone (10 mg/kg dose), or pregabalin (10 mg/kg dose) into the peritoneal cavity once a day for 3 consecutive weeks from the day following the first week to the fourth week after STZ administration.
# The above-mentioned STZ group, SMTP-44D groups, edaravone group, pregabalin group, and control group mice were put in grid-like boxes, respectively, and were familiarized for one hour. After the familiarization, by using a Dynamic Plantar Aesthesiometer (tactometer) (manufactured by UGO BASILE Inc.), 1 g/s (that, pressurization increased by 1 g per second) of stimulation was imparted to the hind legs of these mice to measure mechanical thresholds (g) from the start of stimulation to the time when the mice withdrew their legs. The measurements were conducted for both hind legs three times at intervals of three minutes or longer, respectively. A mean value of three mechanical thresholds (g) was calculated for 1 mouse, and then a mean value of the 12 mice for the respective groups was found.
# IL-6 = test: Inflammatory cytokine IL-6 in sciatic nerve (ELISA); type: in vivo, C57BL/6J male mice; settings: 4th week
# Description: as §1, §2
# The sciatic nerves of the above-mentioned STZ group, SMTP-44D group (30 mg/kg), edaravone group, pregabalin group, and control group mice on the 4th week were homogenized using the RIPA buffer containing a protease inhibitor cocktail. Moreover, centrifugation was conducted at 4° C. for 15 minutes at 10,000 g, and the supernatant was collected and used for measuring TNF-α concentration (pg/mL), IL-1β concentration (pg/mL), IL-6 concentration (pg/mL), and total protein concentration (μg/mL), respectively. An ELISA assay kit was used for the TNF-α, IL-1β, and IL-6 concentrations. The total protein concentration was measured by using a Pierce (trademark) BCA Protein Assay Kit. The inflammatory cytokine level (pg/mg protein) in the total protein was calculated from the TNF-α concentration (pg/mL), IL-1β concentration (pg/mL), and IL-6 concentration (pg/mL), and total protein concentration (μg/mL).
# malondialdehyde: MDA = test: Oxidative stress (MDA, TBARS assay) in sciatic nerve; type: in vivo, C57BL/6J male mice; settings: 4th week
# Description: as §1, §2
# The sciatic nerves of the above-mentioned STZ group, SMTP-44D group (30 mg/kg), edaravone group, pregabalin group, and control group mice in the 4th week were homogenized using an RIPA buffer containing a protease inhibitor cocktail. Moreover, centrifugation was conducted at 4° C. for 15 minutes at 1600 g, and the supernatant was collected and used for measuring MDA (μM) and total protein concentration (μg/mL), respectively. MDA was measured using a TBARS Assay Kit. The total protein concentration was measured using a Pierce (Trademark) BCA Protein Assay Kit. Oxidative stress levels (nmol/mg protein) were calculated from MDA (μM) and the total protein concentration (μg/mL).
# [2] = system: streptozotocin-induced diabetic mice; test: Hot plate test: evaluating thermal stimulus; type: in vivo, C57BL/6J male mice
# Description: as §1, §2
# The above-mentioned STZ group, SMTP-44D groups, edaravone group, pregabalin group, and control group mice were put in grid-like boxes, respectively, and were left for 30 minutes. After having been left, an acrylic disc (diameter: 20 cm; height (that is, thickness of the acrylic disc): […]) was placed on an EC hot plate (model number: EC1200) maintained at 49 to 50° C., and the mice were put on the acrylic disc. The measurements were started after the mice landed on the EC hot plate. The times from the mice landing to their action to jump or lick their hind legs were evaluated as thermal thresholds (seconds: s). Note, to avoid burns on their plantae, the measurements were ceased 30 seconds after beginning. The measurements were conducted three times at 30-minute intervals. A mean value of three thermal thresholds (seconds: s) was calculated for 1 mouse, and then a mean value of the 12 mice for the respective groups was found.
# [3] = system: diabetic nephropathy model mice; test: Serum creatinine; settings: 30 mg/kg i.p. once every two days for 10 weeks; 16 weeks old
# [4] = system: diabetic nephropathy model mice; test: Urinary albumin; settings: 30 mg/kg i.p. once every two days for 10 weeks; 16 weeks old
# [5] = Body weight in diabetic nephropathy model mice; type: in vivo, Male db/db mice; settings: 30 mg/kg i.p. once every two days for 10 weeks; 16 weeks old
# [6] = system: diabetic nephropathy model mice; test: Urine volume (24 h, metabolic cage); type: in vivo, Male db/db mice; settings: 30 mg/kg i.p. once every two days for 10 weeks; 16 weeks old; 24 h urine
# [7] = system: diabetic nephropathy model mice; test: Blood glucose level in diabetic nephropathy model mice; type: in vivo, Male db/db mice; settings: 30 mg/kg i.p. once every two days for 10 weeks; 16 weeks old
# [8] = 10 mg/kg i.p. once a day, 0th week (before dosing)
# [9] = 10 mg/kg i.p. once a day, 0th week (before dosing), listed as pregabalin
# [10] = 10 mg/kg i.p. once a day, 1st week (before dosing)
# [11] = 10 mg/kg i.p. once a day, 1st week (before dosing), listed as pregabalin
# [12] = 10 mg/kg i.p. once a day, 2nd week
# [13] = 10 mg/kg i.p. once a day, 2nd week, listed as pregabalin
# [14] = 10 mg/kg i.p. once a day, 3rd week
# [15] = 10 mg/kg i.p. once a day, 3rd week, listed as pregabalin
# [16] = 10 mg/kg i.p. once a day, 4th week
# [17] = 10 mg/kg i.p. once a day, 4th week, listed as pregabalin
# [18] = 10 mg/kg i.p. once a day, listed as pregabalin
# [19] = 0.3 mg/kg i.p. once a day, 0th week (before dosing)
# [20] = 0.3 mg/kg i.p. once a day, 1st week (before dosing)
# [21] = 0.3 mg/kg i.p. once a day, 2nd week
# [22] = 0.3 mg/kg i.p. once a day, 3rd week
# [23] = 0.3 mg/kg i.p. once a day, 4th week
# [24] = 3 mg/kg i.p. once a day, 0th week (before dosing)
# [25] = 3 mg/kg i.p. once a day, 1st week (before dosing)
# [26] = 3 mg/kg i.p. once a day, 2nd week
# [27] = 3 mg/kg i.p. once a day, 3rd week
# [28] = 3 mg/kg i.p. once a day, 4th week
# [29] = 30 mg/kg i.p. once a day, 0th week (before dosing)
# [30] = 30 mg/kg i.p. once a day, 1st week (before dosing)
# [31] = 30 mg/kg i.p. once a day, 2nd week
# [32] = 30 mg/kg i.p. once a day, 3rd week
# [33] = 30 mg/kg i.p. once a day, 4th week
# [34] = 10 mg/kg i.p. once a day, 0th week (before dosing), listed as edaravone
# [35] = 10 mg/kg i.p. once a day, 1st week (before dosing), listed as edaravone
# [36] = 10 mg/kg i.p. once a day, 2nd week, listed as edaravone
# [37] = 10 mg/kg i.p. once a day, 3rd week, listed as edaravone
# [38] = 10 mg/kg i.p. once a day, 4th week, listed as edaravone
# [39] = 10 mg/kg i.p. once a day, listed as edaravone
compound,measurement,setting,value
"CC(C)C[C@H](CN)CC(=O)O [Pregabalin, pregabalin]",von Frey test mechanical threshold,[1]; [8],5.0 ± 0.2 g
same,von Frey test mechanical threshold,[1]; [9],5.0 ± 0.2 g
same,von Frey test mechanical threshold,[1]; [10],4.0 ± 0.1 g
same,von Frey test mechanical threshold,[1]; [11],4.0 ± 0.1 g
same,von Frey test mechanical threshold,[1]; [12],4.6 ± 0.2 g
same,von Frey test mechanical threshold,[1]; [13],4.6 ± 0.2 g
same,von Frey test mechanical threshold,[1]; [14],4.6 ± 0.2 g
same,von Frey test mechanical threshold,[1]; [15],4.6 ± 0.2 g
same,von Frey test mechanical threshold,[1]; [16],4.7 ± 0.2 g
same,von Frey test mechanical threshold,[1]; [17],4.7 ± 0.2 g
same,IL-6,IL-6; 10 mg/kg i.p. once a day,166.60 ± 13.57 pg/mg protein
same,IL-6,IL-6; [18],166.60±13.57 pg/mg protein
same,MDA (oxidative stress),malondialdehyde: MDA; 10 mg/kg i.p. once a day,4.02 ± 0.59 nmol/mg protein
same,MDA (oxidative stress),malondialdehyde: MDA; [18],4.02±0.59 nmol/mg protein
same,Hot plate test thermal threshold,[2]; [8],22.2 ± 0.8 s
same,Hot plate test thermal threshold,[2]; [9],22.2 ± 0.8 s
same,Hot plate test thermal threshold,[2]; [10],15.7 ± 0.7 s
same,Hot plate test thermal threshold,[2]; [11],15.7 ± 0.7 s
same,Hot plate test thermal threshold,[2]; [12],17.3 ± 1.1 s
same,Hot plate test thermal threshold,[2]; [13],17.3 ± 1.1 s
same,Hot plate test thermal threshold,[2]; [14],17.7 ± 0.9 s
same,Hot plate test thermal threshold,[2]; [15],17.7 ± 0.9 s
same,Hot plate test thermal threshold,[2]; [16],17.9 ± 1.1 s
same,Hot plate test thermal threshold,[2]; [17],17.9 ± 1.1 s
CC(C)=CCCC(C)=CCCC1(C)Oc2c(c(O)cc3c2CN(C(C(=O)O)c2ccc(O)cc2)C3=O)CC1O (stereo not shown) [SMTP-44D],von Frey test mechanical threshold,[1]; [19],5.2 ± 0.1 g
same,von Frey test mechanical threshold,[1]; [20],4.1 ± 0.1 g
same,von Frey test mechanical threshold,[1]; [21],3.5 ± 0.2 g
same,von Frey test mechanical threshold,[1]; [22],3.7 ± 0.1 g
same,von Frey test mechanical threshold,[1]; [23],3.6 ± 0.2 g
same,von Frey test mechanical threshold,[1]; [24],4.9 ± 0.2 g
same,von Frey test mechanical threshold,[1]; [25],4.2 ± 0.1 g
same,von Frey test mechanical threshold,[1]; [26],4.0±0.1 g and 4.0 ± 0.1 ##− g
same,von Frey test mechanical threshold,[1]; [27],3.9 ± 0.2 g
same,von Frey test mechanical threshold,[1]; [28],4.0 ± 0.1 g
same,von Frey test mechanical threshold,[1]; [29],4.9 ± 0.1 g
same,von Frey test mechanical threshold,[1]; [30],3.9 ± 0.2 g
same,von Frey test mechanical threshold,[1]; [31],5.4 ± 0.1 g
same,von Frey test mechanical threshold,[1]; [32],5.3 ± 0.1 g
same,von Frey test mechanical threshold,[1]; [33],5.2 ± 0.1 g
same,IL-6,IL-6; 30 mg/kg i.p. once a day,143.41±8.08 pg/mg protein
same,Serum creatinine,[3],0.4 ± 0.1 mg/dL
same,Urinary albumin,[4],0.3 ± 0.1 mg/h/kg
same,Body weight compared to the DN group,[5],No significant changes
same,Urine volume,[6],1268.3 ± 137.4 µL
same,MDA (oxidative stress),malondialdehyde: MDA; 30 mg/kg i.p. once a day,1.98±0.51 nmol/mg protein
same,Hot plate test thermal threshold,[2]; [19],22.8 ± 1.2 s
same,Hot plate test thermal threshold,[2]; [20],14.3 ± 1.0 s
same,Hot plate test thermal threshold,[2]; [21],14.0 ± 1.4 s
same,Hot plate test thermal threshold,[2]; [22],13.3 ± 1.3 s
same,Hot plate test thermal threshold,[2]; [23],13.1 ± 0.6 s
same,Hot plate test thermal threshold,[2]; [24],21.0 ± 1.3 s
same,Hot plate test thermal threshold,[2]; [25],14.6 ± 1.4 s
same,Hot plate test thermal threshold,[2]; [26],15.4 ± 0.8 s
same,Hot plate test thermal threshold,[2]; [27],15.1 ± 1.1 s
same,Hot plate test thermal threshold,[2]; [28],15.1 ± 1.3 s
same,Hot plate test thermal threshold,[2]; [29],21.3 ± 0.4 s
same,Hot plate test thermal threshold,[2]; [30],15.0 ± 0.7 s
same,Hot plate test thermal threshold,[2]; [31],18.0 ± 1.2 s
same,Hot plate test thermal threshold,[2]; [32],18.4 ± 1.3 s
same,Hot plate test thermal threshold,[2]; [33],18.2 ± 1.1 s
same,Blood glucose levels compared to the DN group,[7],No significant changes
"CC1=NN(c2ccccc2)C(=O)C1 [Edaravone, edaravone]",von Frey test mechanical threshold,[1]; [8],5.1 ± 0.1 g
same,von Frey test mechanical threshold,[1]; [34],5.1 ± 0.1 g
same,von Frey test mechanical threshold,[1]; [10],4.1 ± 0.1 g
same,von Frey test mechanical threshold,[1]; [35],4.1 ± 0.1 g
same,von Frey test mechanical threshold,[1]; [12],4.6 ± 0.2 g
same,von Frey test mechanical threshold,[1]; [36],4.6 ± 0.2 g
same,von Frey test mechanical threshold,[1]; [14],4.8 ± 0.1 g
same,von Frey test mechanical threshold,[1]; [37],4.8 ± 0.1 g
same,von Frey test mechanical threshold,[1]; [16],5.1 ± 0.2 g
same,von Frey test mechanical threshold,[1]; [38],5.1 ± 0.2 g
same,IL-6,IL-6; 10 mg/kg i.p. once a day,165.83 ± 10.21 pg/mg protein
same,IL-6,IL-6; [39],165.83±10.21 pg/mg protein
same,MDA (oxidative stress),malondialdehyde: MDA; 10 mg/kg i.p. once a day,2.98 ± 0.39 nmol/mg protein
same,MDA (oxidative stress),malondialdehyde: MDA; [39],2.98±0.39 nmol/mg protein
same,Hot plate test thermal threshold,[2]; [8],20.8 ± 0.5 s
same,Hot plate test thermal threshold,[2]; [34],20.8 ± 0.5 s
same,Hot plate test thermal threshold,[2]; [10],15.7 ± 0.8 s
same,Hot plate test thermal threshold,[2]; [35],15.7 ± 0.8 s
same,Hot plate test thermal threshold,[2]; [12],15.5 ± 1.2 s
same,Hot plate test thermal threshold,[2]; [36],15.5 ± 1.2 s
same,Hot plate test thermal threshold,[2]; [14],15.4 ± 0.9 s
same,Hot plate test thermal threshold,[2]; [37],15.4 ± 0.9 s
same,Hot plate test thermal threshold,[2]; [16],16.0 ± 0.8 s
same,Hot plate test thermal threshold,[2]; [38],16.0 ± 0.8 s
